Results: US20230150974A1 (Foghorn Therapeutics Inc., priority 2020, published 2023)

Tests used:
[1] = molecular target: T1, HiBiT-BRM (Homo sapiens, UniProt P51531); test: HiBiT-BRM cell-based degradation assay (Nano-Glo HiBiT Lytic Detection); settings: HeLa cells expressing HiBiT-BRM, 24 h; for DC50: read-out: BRM HiBit Degradation IC50
T1 construct: expressed in transfected cells
Summary of the method: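 Luminescence from HiBiT–LgBiT complementation in lysates of a stable HiBiT-BRM HeLa line measured after 24 h compound exposure. Degradation expressed as percent relative to DMSO-treated cells and cells given 2 μM of a known BRM/BRG1 degrader.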

[2] = molecular target: T2, HiBit-BRG1 (Homo sapiens, UniProt P51532); test: HiBit-BRG1 cell-based degradation assay (Nano-Glo HiBiT Lytic Detection); settings: HeLa cells expressing HiBit-BRG1 and LgBit, 24 h; for DC50: read-out: BRG1 HiBit Degradation IC50; for Dmax: read-out: BRG1 HiBit Degradation Maximum (%)
T2 construct: expressed in transfected cells
T2 sequence (P51532 whole entry): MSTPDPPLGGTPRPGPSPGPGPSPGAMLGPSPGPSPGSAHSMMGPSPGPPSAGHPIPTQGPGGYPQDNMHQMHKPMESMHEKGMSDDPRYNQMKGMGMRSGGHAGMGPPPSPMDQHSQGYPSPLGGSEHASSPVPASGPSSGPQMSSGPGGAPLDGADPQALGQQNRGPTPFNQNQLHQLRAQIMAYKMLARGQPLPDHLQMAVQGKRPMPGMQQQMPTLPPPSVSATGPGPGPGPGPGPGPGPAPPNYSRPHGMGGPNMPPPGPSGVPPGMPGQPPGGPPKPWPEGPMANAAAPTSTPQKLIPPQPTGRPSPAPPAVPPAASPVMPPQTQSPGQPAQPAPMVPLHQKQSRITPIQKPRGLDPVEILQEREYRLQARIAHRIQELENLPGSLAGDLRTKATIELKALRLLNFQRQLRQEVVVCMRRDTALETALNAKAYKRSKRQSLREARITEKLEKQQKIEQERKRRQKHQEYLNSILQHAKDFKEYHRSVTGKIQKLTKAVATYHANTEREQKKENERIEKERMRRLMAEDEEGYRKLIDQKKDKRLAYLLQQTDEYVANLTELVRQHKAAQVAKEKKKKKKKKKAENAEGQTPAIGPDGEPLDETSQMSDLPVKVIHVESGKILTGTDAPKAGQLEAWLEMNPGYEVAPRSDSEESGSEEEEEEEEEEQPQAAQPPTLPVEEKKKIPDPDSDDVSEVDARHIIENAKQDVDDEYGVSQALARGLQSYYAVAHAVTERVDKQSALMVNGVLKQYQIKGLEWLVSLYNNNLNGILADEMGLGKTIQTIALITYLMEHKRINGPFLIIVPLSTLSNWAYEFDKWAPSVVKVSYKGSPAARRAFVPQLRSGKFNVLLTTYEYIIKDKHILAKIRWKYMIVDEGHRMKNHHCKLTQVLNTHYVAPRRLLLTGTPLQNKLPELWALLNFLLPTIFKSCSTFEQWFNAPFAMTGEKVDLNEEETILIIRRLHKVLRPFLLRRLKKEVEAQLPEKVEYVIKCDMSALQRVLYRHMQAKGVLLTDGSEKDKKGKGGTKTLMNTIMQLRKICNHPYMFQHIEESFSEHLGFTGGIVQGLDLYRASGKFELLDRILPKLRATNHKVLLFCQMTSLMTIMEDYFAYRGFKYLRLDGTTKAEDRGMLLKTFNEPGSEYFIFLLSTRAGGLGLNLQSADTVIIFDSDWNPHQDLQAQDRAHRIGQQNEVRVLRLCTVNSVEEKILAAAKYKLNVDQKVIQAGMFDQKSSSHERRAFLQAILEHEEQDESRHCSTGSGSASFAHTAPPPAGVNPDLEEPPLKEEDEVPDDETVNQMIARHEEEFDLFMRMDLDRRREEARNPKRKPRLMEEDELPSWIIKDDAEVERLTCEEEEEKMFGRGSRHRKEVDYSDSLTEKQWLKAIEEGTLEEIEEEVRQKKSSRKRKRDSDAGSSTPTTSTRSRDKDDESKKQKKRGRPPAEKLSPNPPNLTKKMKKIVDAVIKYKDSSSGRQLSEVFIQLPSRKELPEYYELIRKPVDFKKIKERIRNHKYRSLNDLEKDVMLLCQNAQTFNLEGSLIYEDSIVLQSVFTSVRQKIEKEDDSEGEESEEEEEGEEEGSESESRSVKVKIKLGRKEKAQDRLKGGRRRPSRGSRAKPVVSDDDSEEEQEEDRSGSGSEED
Summary of the method: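 HeLa cells stably expressing HiBiT-BRG1 plus LgBit, 5000/well, treated 24 h, then lysed with Nano-Glo HiBiT lytic reagent and luminescence read. % degradation normalised between DMSO (high control) and 2 μM reference BRM/BRG1 degrader (low control).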

T1 sequence (P51531 whole entry): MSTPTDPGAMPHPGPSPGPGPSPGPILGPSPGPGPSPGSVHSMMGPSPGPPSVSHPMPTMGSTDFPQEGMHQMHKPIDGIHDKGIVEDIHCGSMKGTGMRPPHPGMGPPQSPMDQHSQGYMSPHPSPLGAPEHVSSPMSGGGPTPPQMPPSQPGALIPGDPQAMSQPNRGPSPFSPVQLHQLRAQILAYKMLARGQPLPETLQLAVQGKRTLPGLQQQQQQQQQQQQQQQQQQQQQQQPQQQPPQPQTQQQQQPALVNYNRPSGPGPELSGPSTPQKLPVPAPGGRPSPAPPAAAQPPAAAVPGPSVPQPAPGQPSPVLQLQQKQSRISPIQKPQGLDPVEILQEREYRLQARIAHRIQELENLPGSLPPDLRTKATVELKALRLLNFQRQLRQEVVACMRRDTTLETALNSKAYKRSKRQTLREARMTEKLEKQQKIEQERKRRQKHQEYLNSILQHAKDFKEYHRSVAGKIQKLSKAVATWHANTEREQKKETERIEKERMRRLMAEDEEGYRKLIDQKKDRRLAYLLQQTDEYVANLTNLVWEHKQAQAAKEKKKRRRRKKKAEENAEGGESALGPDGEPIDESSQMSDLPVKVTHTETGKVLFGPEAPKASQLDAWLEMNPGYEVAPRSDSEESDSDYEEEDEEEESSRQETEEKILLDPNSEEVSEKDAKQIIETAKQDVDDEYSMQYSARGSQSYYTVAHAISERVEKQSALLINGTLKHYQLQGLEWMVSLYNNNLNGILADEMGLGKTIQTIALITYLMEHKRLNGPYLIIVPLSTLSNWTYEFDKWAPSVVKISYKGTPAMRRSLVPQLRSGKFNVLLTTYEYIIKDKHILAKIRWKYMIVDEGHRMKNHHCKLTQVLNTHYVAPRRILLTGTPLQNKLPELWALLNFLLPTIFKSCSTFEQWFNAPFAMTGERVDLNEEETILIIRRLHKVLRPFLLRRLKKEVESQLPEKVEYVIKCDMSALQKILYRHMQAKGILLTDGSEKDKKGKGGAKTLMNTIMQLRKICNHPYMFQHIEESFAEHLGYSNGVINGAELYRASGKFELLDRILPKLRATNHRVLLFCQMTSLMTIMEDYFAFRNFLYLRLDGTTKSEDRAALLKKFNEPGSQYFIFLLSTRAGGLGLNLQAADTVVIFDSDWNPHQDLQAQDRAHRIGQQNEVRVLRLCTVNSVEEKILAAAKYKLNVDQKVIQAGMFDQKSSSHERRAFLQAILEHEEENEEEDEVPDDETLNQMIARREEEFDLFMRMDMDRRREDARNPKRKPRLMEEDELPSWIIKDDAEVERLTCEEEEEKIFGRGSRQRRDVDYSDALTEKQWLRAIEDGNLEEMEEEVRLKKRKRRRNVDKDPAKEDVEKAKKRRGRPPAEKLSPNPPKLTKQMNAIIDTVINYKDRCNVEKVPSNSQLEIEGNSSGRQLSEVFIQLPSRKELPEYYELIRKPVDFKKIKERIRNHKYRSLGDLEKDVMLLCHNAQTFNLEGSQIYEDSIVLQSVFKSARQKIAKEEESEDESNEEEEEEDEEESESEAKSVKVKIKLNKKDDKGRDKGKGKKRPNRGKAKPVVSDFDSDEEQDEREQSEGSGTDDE

| Compound | DC50 [1] [nM] | DC50 [2] [nM] | Dmax [2] [%] | BRM HiBit Degradation Maximum (%) [1] |
| --- | --- | --- | --- | --- |
| Cc1ncsc1-c1ccc(CNC(=O)[C@@H]2C[C@@H](O)CN2C(=O)[C@@H](NC(=O)CCN2CCC(O)(C(=O)NCc3ccc(CCOc4cc(-c5ccccc5O)nnc4N)cc3)CC2)C(C)(C)C)cc1 [Compound 185, N-[[4-(2-[[3-amino-6-(2-hydroxyphenyl)pyridazin-4-yl]oxy]ethyl)phenyl]methyl]-4-hydroxy-1-(2-[[(2S)-1-[(2S,4R)-4-hydroxy-2-([[4-(4-methyl-1,3-thiazol-5-yl)phenyl]methyl]carbamoyl)pyrrolidin-1-yl]-3,3-dimethyl-1-oxobutan-2-yl]carbamoyl]ethyl)piperidine-4-carboxamide] | > 1000 | > 1000 | < 50 | C (“C” indicates maximum degradation <50%) |
| Cc1ncsc1-c1ccc(CNC(=O)[C@@H]2C[C@@H](O)CN2C(=O)[C@@H](NC(=O)CCN2CCC3(CC2)CC(C(=O)NCc2ccc(CCOc4cc(-c5ccccc5O)nnc4N)cc2)C3)C(C)(C)C)cc1 [Compound 186, N-[[4-(2-[[3-amino-6-(2-hydroxyphenyl)pyridazin-4-yl]oxy]ethyl)phenyl]methyl]-7-(2-[[(2S)-1-[(2S,4R)-4-hydroxy-2-([[4-(4-methyl-1,3-thiazol-5-yl)phenyl]methyl]carbamoyl)pyrrolidin-1-yl]-3,3-dimethyl-1-oxobutan-2-yl]carbamoyl]ethyl)-7-azaspiro[3.5]nonane-2-carboxamide] | > 1000 | > 1000 | < 50 | C (“C” indicates maximum degradation <50%) |
| Cc1ncsc1-c1ccc(CNC(=O)[C@@H]2C[C@@H](O)CN2C(=O)[C@@H](NC(=O)CCNCc2ccc(CCOc3cc(-c4ccccc4O)nnc3N)cc2)C(C)(C)C)cc1 [Compound 187, (2S,4R)-1-((S)-2-(3-((4-(2-((3-amino-6-(2-hydroxyphenyl)pyridazin-4-yl)oxy)ethyl)benzyl)amino)propanamido)-3,3-dimethylbutanoyl)-4-hydroxy-N-(4-(4-methylthiazol-5-yl)benzyl)pyrrolidine-2-carboxamide] | > 1000 | > 1000 | < 50 | C (“C” indicates maximum degradation <50%) |
| Cc1ncsc1-c1ccc(CNC(=O)[C@@H]2C[C@@H](O)CN2C(=O)[C@@H](NC(=O)CCN2CC3(CN(CCC(=O)NCc4ccc(CCOc5cc(-c6ccccc6O)nnc5N)cc4)C3)C2)C(C)(C)C)cc1 [Compound 188, (2S,4R)-1-[(2S)-2-(3-[6-[2-([[4-(2-[[3-amino-6-(2-hydroxyphenyl)pyridazin-4-yl]oxy]ethyl)phenyl]methyl]carbamoyl)ethyl]-2,6-diazaspiro[3.3]heptan-2-yl]propanamido)-3,3-dimethylbutanoyl]-4-hydroxy-N-[[4-(4-methyl-1,3-thiazol-5-yl)phenyl]methyl]pyrrolidine-2-carboxamide] | > 1000 | > 1000 | < 50 | C (“C” indicates maximum degradation <50%) |
| Cc1ncsc1-c1ccc(CNC(=O)[C@@H]2C[C@@H](O)CN2C(=O)[C@@H](NC(=O)CCN2CCN(CCC(=O)NCc3ccc(CCOc4cc(-c5ccccc5O)nnc4N)cc3)CC2)C(C)(C)C)cc1 [Compound 189, (2S,4R)-1-[(2S)-2-(3-[4-[2-([[4-(2-[[3-amino-6-(2-hydroxyphenyl)pyridazin-4-yl]oxy]ethyl)phenyl]methyl]carbamoyl)ethyl]piperazin-1-yl]propanamido)-3,3-dimethylbutanoyl]-4-hydroxy-N-[[4-(4-methyl-1,3-thiazol-5-yl)phenyl]methyl]pyrrolidine-2-carboxamide] | > 1000 | > 1000 | < 50 | C (“C” indicates maximum degradation <50%) |

Second part, led by results:

| DC50 [1] [nM] | DC50 [2] [nM] | Dmax [2] [%] | Compound | BRM HiBit Degradation Maximum (%) [1] |
| --- | --- | --- | --- | --- |
| > 1000 | > 1000 | < 50 | Cc1ncsc1-c1ccc(CNC(=O)[C@@H]2C[C@@H](O)CN2C(=O)[C@@H](NC(=O)CCN2C[C@@H]3[C@H](C2)[C@H]3C(=O)NCc2ccc(CCOc3cc(-c4ccccc4O)nnc3N)cc2)C(C)(C)C)cc1 [Compound 184, (1R,5S,6S)-N-[[4-(2-[[3-amino-6-(2-hydroxyphenyl)pyridazin-4-yl]oxy]ethyl)phenyl]methyl]-3-(2-[[(2S)-1-[(2S,4R)-4-hydroxy-2-([[4-(4-methyl-1,3-thiazol-5-yl)phenyl]methyl]carbamoyl)pyrrolidin-1-yl]-3,3-dimethyl-1-oxobutan-2-yl]carbamoyl]ethyl)-3-azabicyclo[3.1.0]hexane-6-carboxamide] | B (“B” indicates maximum degradation ≥50%) |
| > 10 | > 100 | > 75 | Cc1ncsc1-c1ccc([C@H](C)NC(=O)[C@@H]2C[C@@H](O)CN2C(=O)[C@@H](c2cc(OCCN3C[C@@H]4CN(C(=O)c5ccc(CCOc6cc(-c7ccccc7O)nnc6N)cc5)C[C@@H]4C3)no2)C(C)C)cc1 [Compound 190, (2S,4R)-1-((2R)-2-(3-(2-(5-(4-(2-((3-amino-6-(2-hydroxyphenyl)pyridazin-4-yl)oxy)ethyl)benzoyl)hexahydropyrrolo[3,4-c]pyrrol-2(1H)-yl)ethoxy)isoxazol-5-yl)-3-methylbutanoyl)-4-hydroxy-N-((S)-1-(4-(4-methylthiazol-5-yl)phenyl)ethyl)pyrrolidine-2-carboxamide] | A (“A” indicates maximum degradation ≥75%) |
| > 100 | > 1000 | > 75 | Cc1ncsc1-c1ccc([C@H](C)NC(=O)[C@@H]2C[C@@H](O)CN2C(=O)[C@@H](c2cc(OCCN3CC4(C3)CN(CC(=O)NCc3ccc(CCOc5cc(-c6ccccc6O)nnc5N)cc3)C4)no2)C(C)C)cc1 [Compound 191, (2S,4R)-1-[(2R)-2-[3-(2-[6-[([[4-(2-[[3-amino-6-(2-hydroxyphenyl)pyridazin-4-yl]oxy]ethyl)phenyl]methyl]carbamoyl)methyl]-2,6-diazaspiro[3.3]heptan-2-yl]ethoxy)-1,2-oxazol-5-yl]-3-methylbutanoyl]-4-hydroxy-N-[(1S)-1-[4-(4-methyl-1,3-thiazol-5-yl)phenyl]ethyl]pyrrolidine-2-carboxamide] | A (“A” indicates maximum degradation ≥75%) |
| > 100 | > 1000 | > 50 | Cc1ncsc1-c1ccc([C@H](C)NC(=O)[C@@H]2C[C@@H](O)CN2C(=O)[C@@H](c2cc(OCCN3CC4(C3)CN(CCC(=O)NCc3ccc(CCOc5cc(-c6ccccc6O)nnc5N)cc3)C4)no2)C(C)C)cc1 [Compound 192, (2S,4R)-1-[(2R)-2-[3-(2-[6-[2-([[4-(2-[[3-amino-6-(2-hydroxyphenyl)pyridazin-4-yl]oxy]ethyl)phenyl]methyl]carbamoyl)ethyl]-2,6-diazaspiro[3.3]heptan-2-yl]ethoxy)-1,2-oxazol-5-yl]-3-methylbutanoyl]-4-hydroxy-N-[(1S)-1-[4-(4-methyl-1,3-thiazol-5-yl)phenyl]ethyl]pyrrolidine-2-carboxamide] | A (“A” indicates maximum degradation ≥75%) |
